Where two headings read alike, the source gives them in different places.
Tested on: HCV proteins in Rep5.1 cells (replicon cell line)
Experiment: Inhibitory activity of HCV: cell-based ELISA in replicon cell line Rep5.1 (decrease of HCV proteins)
Design: species or system hepatitis C virus
Summary of the method: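 Rep5.1 replicon cells (5000/well, DMEM-10 with 500 μg/ml G418) were given serially diluted drug 4 h after seeding. After 72 h, cells were fixed in methanol/acetone and HCV proteins detected by cell-based ELISA using replicon-specific patient plasma antibodies. IC50 is the concentration giving 50% protein decrease versus the no-drug control.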

[1] = Hepatitis C virus, 72 h, Rep5.1 cells, 72 hours with drug, concentration at which 50% of HCV proteins was decreased, Table 2, read-out: IC50
[2] = Hepatitis C virus, 72 h, Rep5.1 cells, 72 hours with drug, decrease of HCV proteins measured by HCV antibody, Table 1, read-out: Level (IC50 values classified)
[3] = Rep5.1 cells, 72 hours with drug, concentration at which 50% of HCV proteins was decreased, Table 2, read-out: IC50

Row | Compound | IC50 [1] | IC50 [2] | IC50 [3] | IC50 (Hepatitis C virus, 72 h) | IC50 (Hepatitis C virus, 72 h, read-out: Level (IC50 values classified))
1 | CC1=C(C(=O)OCCc2ccsc2Br)C(CO)NC(=S)N1 (centres unmarked) [10″, 4-hydroxymethyl-6-methyl-2-thioxo-1,2,3,4-tetrahydro-pyrimidine-5-carboxylic acid 2-(2-bromo-thiophen-3-yl)-ethyl ester] | 7 µM | 1 to 10 µM |  |  | 
2 | CC1=C(C(=O)OCCc2ccc([N+](=O)[O-])cc2)CNC(=S)N1 [Compound 119, 6-methyl-2-thioxo-1,2,3,4-tetrahydro-pyrimidine-5-carboxylic acid 2-(4-nitro-phenyl)-ethyl ester] | 1.3 µM | 1 to 10 µM |  |  | 
3 | COc1cscc1CCOC(=O)C1=C(C)NC(=S)NC1CF (centres unmarked) [41′, 4-fluoromethyl-6-methyl-2-thioxo-1,2,3,4-tetrahydro-pyrimidine-5-carboxylic acid 2-(4-methoxy-thiophen-3-yl)-ethyl ester] | 15 µM | 10 to 20 µM |  |  | 
4 | CC1=C(C(=O)OCCc2cccc(Cl)c2)C(CO)NC(=S)N1 (centres unmarked) [31″, 4-hydroxymethyl-6-methyl-2-thioxo-1,2,3,4-tetrahydro-pyrimidine-5-carboxylic acid 2-(3-chloro-phenyl)-ethyl ester] | 1 µM | < 1 µM |  |  | 
5 | CC1=C(C(=O)OCCc2c(F)cc(F)cc2F)C(CO)NC(=S)N1 (centres unmarked) [53″, 4-hydroxymethyl-6-methyl-2-thioxo-1,2,3,4-tetrahydro-pyrimidine-5-carboxylic acid 2-(2,4,6-trifluoro-phenyl)-ethyl ester] | 7 µM | 1 to 10 µM |  |  | 
6 | CC1=C(C(=O)OCc2ccccc2S(=O)(=O)CC(C)C)CNC(=S)N1 [Compound 113, 6-methyl-2-thioxo-1,2,3,4-tetrahydro-pyrimidine-5-carboxylic acid 2-(2-methyl-propane-1-sulfonyl)-benzyl ester] | > 100 µM | > 20 µM |  |  | 
7 | COc1ccc(COC(=O)C2=C(C)NC(=S)NC2)cc1 [Compound 8, 6-methyl-2-thioxo-1,2,3,4-tetrahydro-pyrimidine-5-carboxylic acid 4-methoxy-benzyl ester] | 3 µM | 1 to 10 µM |  |  | 
8 | COc1ccc(C2(COC(=O)C3=C(C)NC(=S)NC3CF)CCCC2)cc1 (centres unmarked) [64′, 4-fluoromethyl-6-methyl-2-thioxo-1,2,3,4-tetrahydro-pyrimidine-5-carboxylic acid 1-(4-methoxy-phenyl)-cyclopentylmethyl ester] | 3 µM | 1 to 10 µM |  |  | 
9 | CC1=C(C(=O)OCc2cccc(SC(F)(F)F)c2)C(CO)NC(=S)N1 (centres unmarked) [33″, 4-hydroxymethyl-6-methyl-2-thioxo-1,2,3,4-tetrahydro-pyrimidine-5-carboxylic acid 3-trifluoromethylsulfanyl-benzyl ester] | < 0.4 µM | < 1 µM |  |  | 
10 | CC1=C(C(=O)OCc2ccccc2)C(CO)NC(=S)N1 (centres unmarked) [8″, 4-hydroxymethyl-6-methyl-2-thioxo-1,2,3,4-tetrahydro-pyrimidine-5-carboxylic acid benzyl ester] | > 100 µM | > 20 µM |  |  | 
11 | CC1=C(C(=O)OCCc2ccc(F)c(F)c2)C(CF)NC(=S)N1 (centres unmarked) [90′, 4-fluoromethyl-6-methyl-2-thioxo-1,2,3,4-tetrahydro-pyrimidine-5-carboxylic acid 2-(3,4-difluoro-phenyl)-ethyl ester] | 0.8 µM | < 1 µM |  |  | 
12 | O=C(OCCc1ccsc1)C1=CNC(=S)NC1CF (centres unmarked) [Compound 271, 4-fluoromethyl-2-thioxo-1,2,3,4-tetrahydro-pyrimidine-5-carboxylic acid 2-thiophen-3-yl-ethyl ester] | 9 µM | 1 to 10 µM |  |  | 
13 | CC1=C(C(=O)OCCCc2ccsc2F)C(CF)NC(=S)N1 (centres unmarked) [52′, 4-fluoromethyl-6-methyl-2-thioxo-1,2,3,4-tetrahydro-pyrimidine-5-carboxylic acid 3-(2-fluoro-thiophen-3-yl)-propyl ester] | 22 µM | > 20 µM |  |  | 
14 | CC1=C(C(=O)OCCc2ccsc2)C(CF)NC(=S)N1 (centres unmarked) [Compound 252, 4-fluoromethyl-6-methyl-2-thioxo-1,2,3,4-tetrahydro-pyrimidine-5-carboxylic acid 2-thiophen-3-yl-ethyl ester] | 1.4 µM | 1 to 10 µM |  |  | 
15 | CC(=O)OCC1NC(=S)NC(C)=C1C(=O)OCCc1ccsc1 (centres unmarked) [21″, 4-acetoxymethyl-6-methyl-2-thioxo-1,2,3,4-tetrahydro-pyrimidine-5-carboxylic acid 2-thiophen-3-yl-ethyl ester] | > 100 µM | > 20 µM |  |  | 
16 | CC1=C(C(=O)OCCc2ccsc2)C2(CCC2)NC(=S)N1 [7′, 8-methyl-6-thioxo-5,7-diaza-spiro[3,5]non-8-en-9-carboxylic acid 2-thiophen-3-yl-ethyl ester] | 8 µM | 1 to 10 µM |  |  | 
17 | CC1=C(C(=O)SCc2ccco2)CNC(=S)N1 [38′, 6-methyl-2-thioxo-1,2,3,4-tetrahydro-pyrimidine-5-carbothioic acid S-furan-2-ylmethyl ester] | 0.7 µM | < 1 µM |  |  | 
18 | CC1=C(C(=O)OCC#CCOCc2ccccc2)CNC(=S)N1 [Compound 214, 6-methyl-2-thioxo-1,2,3,4-tetrahydro-pyrimidine-5-carboxylic acid 4-benzyloxy-but-2-inyl ester] |  |  | < 0.4 µM |  | 
19 | CC1=C(C(=O)OCCc2ccccc2)C(CF)NC(=S)N1 (centres unmarked) [33′, 4-fluoromethyl-6-methyl-2-thioxo-1,2,3,4-tetrahydro-pyrimidine-5-carboxylic acid phenethyl ester] | 1 µM | < 1 µM |  |  | 
20 | CC1=C(C(=O)OCCCCCc2ccccc2)C(CO)NC(=S)N1 (centres unmarked) [18″, 4-hydroxymethyl-6-methyl-2-thioxo-1,2,3,4-tetrahydro-pyrimidine-5-carboxylic acid 5-phenyl-pentyl ester] | < 0.4 µM | < 1 µM |  |  | 
21 | CC1=C(C(=O)OCCc2ccsc2)C2(CC2)NC(=S)N1 [13′, 7-methyl-5-thioxo-4,6-diaza-spiro[2.5]oct-7-ene-8-airboxylic acid 2-thiophen-3-yl-ethyl ester] |  |  | 79 µM |  | 
22 | CC1=C(C(=O)OCCc2ccsc2)[C@@H](CF)NC(=S)N1 [25′, (S)-4-fluoromethyl-6-methyl-2-thioxo-1,2,3,4-tetrahydro-pyrimidine-5-carboxylic acid 2-thiophen-3-yl-ethyl ester] | 4.9 µM | 1 to 10 µM |  |  | 
23 | CC1=C(C(=O)OCCCCCCCCCC(=O)O)CNC(=S)N1 [20′, 6-methyl-2-thioxo-1,2,3,4-tetrahydro-pyrimidine-5-carboxylic acid 9-carboxy-nonyl ester] | 27 µM | > 20 µM |  |  | 
24 | CC1=C(C(=O)OCC2CC3CCC2C3)CNC(=S)N1 (centres unmarked) [Compound 151, 6-methyl-2-thioxo-1,2,3,4-tetrahydro-pyrimidine-5-carboxylic acid bicyclo[2.2.1]hept-2-ylmethyl ester] |  |  |  | < 0.4 µM | < 1 µM
25 | CC1=C(C(=O)OCc2cnc(-c3cccs3)s2)CNC(=S)N1 [Compound 210, 6-methyl-2-thioxo-1,2,3,4-tetrahydro-pyrimidine-5-carboxylic acid 2-thiophen-2-yl-thiazol-5-ylmethyl ester] | 3 µM | 1 to 10 µM |  |  | 
26 | CC1=C(C(=O)OCCc2ccsc2)C(c2ccccc2)NC(=S)N1 (centres unmarked) [4′, 6-methyl-4-phenyl-2-thioxo-1,2,3,4-tetrahydro-pyrimidine-5-carboxylic acid 2-thiophen-3-yl-ethyl ester] | 51 µM | > 20 µM |  |  | 
